According to patent US20120101046A1, “PROPHYLACTIC OR THERAPEUTIC AGENT FOR RETINAL DISEASE AND METHOD FOR PROPHYLAXIS OR THERAPY OF RETINAL DISEASE USING JNK (C-JUN AMINO-TERMINAL KINASE) - INHIBITORY PEPTIDE, AND USE OF THE PEPTIDE” (priority 2009, published 2012):
Like-named read-outs stand apart in the source and are kept apart here. Non-standard residues stand in square brackets, D forms with d. Residues, ends and D or L forms follow the SMILES beside them.

Tests used:
[1] = test system: spermidine-induced retinal degeneration model; experiment: Spermidine-induced retinal degeneration model, ERG (a-wave) measurement; assay type: in vivo; details: rats, intravitreal
From the text: Therefore, a spermidine-induced retinal degeneration model is used as a model for evaluating therapeutic agents for diseases involving retinal pigment epithelial damage, such as atrophic AMD (Invest. Ophthalmol. Vis. Sci., 48 (1), 455-463 (2007) (NPL 1); Invest. Ophthalmol. Vis. Sci. 51, ARVO E-abstract 3644 (2010); etc.). Thus, an effect of the JNK-inhibitory peptide of the present invention on photoreceptor cell damage caused by retinal pigment epithelial damage was investigated using the aforementioned model, and then compared with that obtained by the representative JNK-inhibitor, SP600125.
To a control group, 10 μL of Dulbecco PBS was administered. To a vehicle-administered group, 10 μL of a 2 mM solution of spermidine dissolved in Dulbecco PBS was administered. To a peptide A-administered group, a 4 mM solution of spermidine dissolved in Dulbecco PBS was mixed with 0.6 mg/mL peptide A dissolved in Dulbecco PBS to give a 1:1 mixture, and 10 μL of the solution was administered into the vitreous cavity. To an SP600125-administered group, spermidine was dissolved in a 0.3 mg/mL solution of SP600125 dissolved in Dulbecco PBS to give a concentration of 2 mM, and 10 μL of the solution was administered into the vitreous cavity. As spermidine, “Spermidine, Trihydrochloride” (Cat. No. 56766), purchased from Calbiochem, was used. […] As SP600125, “SP600125” (Cat. No. S5567-50 MG), purchased from Sigma Aldrich, was used.
Suppression ratios against reduction in ERG amplitude were subsequently calculated using an equation 1 shown below.
Suppression ratio against reduction in ERG amplitude (%)=((Ex−Ev)/(Ec−Ev))×100, [Equation 1]

[2] = test system: laser-induced rat choroidal neovascularization model; experiment: Laser-induced rat choroidal neovascularization model, fluorescent fundus angiography; assay type: in vivo; details: rats, intravitreal, 3 μg/eye, day 7 after photocoagulation
Protocol: As a pharmacological test model for investigating an inhibitory effect on choroidal neovascularization, a laser-induced choroidal neovascularization model is widely used (Folia Ophthalmologica Japonica, 45, 853-856 (1994)).
Photocoagulation was subsequently performed using a krypton laser photocoagulator (manufactured by NIDEK, a multicolor laser photocoagulator MC-7000). With focusing laser beam on the deep retinal layers, photocoagulation was conducted in the posterior portion of the ocular fundus at 8 spots per eye in a dispersed manner, while avoiding thick retinal blood vessels. After photocoagulation, fundus photography was performed to identify the laser-irradiated sites.
To a vehicle-administered group, 5 μL of physiological saline was administered.
Subsequently, 0.1 mL of a 10% fluorescein sodium solution was injected via the tail vein, and fluorescent fundus angiography (manufactured by Kowa, Fundus Camera Kowa PROIII) was performed. In fluorescent fundus angiography, spots at which fluorescence exposure was not observed was determined as negative (without neovascularization), and spots at which fluorescence exposure was observed were determined as positive (with neovascularization). Moreover, when there were two photocoagulation sites at which slight fluorescence exposure was observed, these photocoagulation sites were determined as positive (with neovascularization). […]

[3] = test system: tunicamycin-induced rat photoreceptor cell damage model; details: rats, intravitreal, 2.7 μg/eye, 7 days after tunicamycin administration
Protocol: Such a model was thus used to evaluate the usefulness of the JNK-inhibitory peptide of the present invention against photoreceptor cell damage.
General anesthesia was induced in rats by intramuscular administration of 1 mL/kg of a mixture (7:1) of a 5% (W/V) ketamine hydrochloride injection solution and a 2% xylazine hydrochloride injection solution. A 0.5% (W/V) tropicamide-0.5% phenylephrine hydrochloride ophthalmic solution was instilled into their eyes to cause dilation of the pupils. Under conditions that ocular fundus is visualized, a microsyringe (25 μL volume, Hamilton) fitted with a 33 G needle was used and inserted into the vitreous cavity. To a control group, 54 of a mixture (1:9) of dimethyl sulfoxide and physiological saline was administered. […]
After 7 days from the administration of tunicamycin, general anesthesia was induced in the rats under dark adaptation by intramuscular administration of 1 mL/kg of a mixture (7:1) of a 5% (W/V) ketamine hydrochloride injection solution and a 2% xylazine hydrochloride injection solution. […] Then, using an electroretinogram (ERG) measurement apparatus (manufactured by Tomey Corporation, portable ERG&VEP LE-3000), ERGs (a-wave) were measured. Suppression ratio against reduction in ERG amplitude was subsequently calculated using an equation 4 shown below. […]

[4] = 3 μg/eye, 13 days after spermidine administration

Row | Compound | Suppression ratio against Reduction in ERG (a-Wave) amplitude (%) [1, 4] [%] | Suppression ratio against Reduction in ERG (a-Wave) amplitude (%) ([1]; 3 μg/eye, 13 days after spermidine administration, listed as peptide A) | Suppression Ratio (%) of Choroidal Neovascularization Development [2] [%] | Suppression Ratio (%) of Choroidal Neovascularization Development ([2]; listed as peptide A) | Suppression ratio against Reduction in ERG (a-Wave) amplitude (%) [3] [%] | Suppression ratio against Reduction in ERG (a-Wave) amplitude (%) ([3]; listed as peptide A) | damage suppression effect in the spermidine model [1] | aggravated the reduction in ERG amplitude [1, 4]
1 | CC(C)C[C@@H](NC(=O)[C@@H](CC(N)=O)NC(=O)[C@@H](CC(C)C)NC(=O)[C@H](NC(=O)[C@H](NC(=O)[C@H]1CCCN1C(=O)[C@@H](CCCNC(=N)N)NC(=O)[C@@H](CCCCN)NC(=O)[C@H]1CCCN1C(=O)[C@@H](CCCNC(=N)N)NC(=O)[C@H]1CCCN1C(=O)[C@H]1CCCN1C(=O)[C@@H](CCCNC(=N)N)NC(=O)[C@@H](CCCNC(=N)N)NC(=O)[C@@H](CCCNC(=N)N)NC(=O)[C@@H](CCC(N)=O)NC(=O)[C@@H](CCCNC(=N)N)NC(=O)[C@@H](CCCNC(=N)N)NC(=O)[C@@H](CCCCN)NC(=O)[C@@H](CCCCN)NC(=O)[C@@H](CCCNC(=N)N)NC(=O)CN)[C@H](C)O)[C@H](C)O)C(=O)N[C@H](Cc1ccccc1)C(=O)N1CCC[C@@H]1C(=O)N[C@H](CCC(N)=O)C(=O)N[C@@H](C(=O)N1CCC[C@@H]1C(=O)N[C@H](CCCNC(=N)N)C(=O)N[C@H](CO)C(=O)N[C@H](CCC(N)=O)C(=O)N[C@H](CC(=O)O)C(=O)O)C(C)C [Peptide A] (H-G[dR][dK][dK][dR][dR][dQ][dR][dR][dR][dP][dP][dR][dP][dK][dR][dP][dT][dT][dL][dN][dL][dF][dP][dQ][dV][dP][dR][dS][dQ][dD]-OH) | 72.7 | approximately 73% | 14.3 | approximately 14% | 50.0 | approximately 50% |  | 
2 | Oc1c2ccccc2c2c3c(cccc13)N=N2 [SP600125] | −17.6 |  |  |  |  |  | no damage suppression effect | approximately 18%
